# Columns and labels:
# [1] = target: serotonin 5-HT2C receptor (Homo sapiens, UniProt P28335, I156V/I160V/N158S); format: cell-based
# [2] = system: SD female rats; test: stress urinary incontinence: leak point pressure before and after administration (Experimental Example 5a); format: in vivo, rat; conditions: i.v., spinal cord-transected SD female rats
# Description: The effect of the compound of the present invention for stress urinary incontinence was measured by comparing the leak point pressure before and after the administration of the compound as shown below. SD female rats (body weight 200-270 g) were anesthetized with urethane (Wako Pure Chemical Industries, Ltd.), and the spinal cord was cut at T8-9 level to eliminate the micturition reflex. During the operation, isoflurane anesthesia was added as necessary. The rats were fixed at a dorsal position, and two catheters (PE-100; Clay Adams) were indwelled in the bladder. One of the catheters was filled with saline stained with Evans Blue dye (Merck), and connected to a 50 ml syringe (TERUMO CORPORATION) fixed on an infusion pump (KD Scientific) via a three-way cock. The other catheter was connected to a pressure transducer (DX-100; NIHON KOHDEN CORPORATION), and signals of the transducer were transmitted to computer via an amplifier (blood pressure amplification unit AP-641G; NIHON KOHDEN CORPORATION) and a data analyzer (BIOPAC; MP100), and recorded on a hard disk. The data was analyzed on the computer using a software (BIOPAC; AcqKnowledge). A DMA/PEG400 (1:1) solution was intravenously administered to the rats at 0.5 mL/kg. From 10 min later, saline was injected into the bladder using the infusion pump at a rate of 360 ml/hr, infusion was stopped on the moment fluid leakage from the urethral meatus was observed, and the solution in the bladder was discharged by opening the three-way cock. The maximum intravesical pressure during infusion was taken as a leak point pressure, which was measured repeatedly until the value was stabilized, and the average value of the last three measures was taken as the data. […] Williams test was used for statistical calculation.
# [3] = system: Male F344 rats; test: obesity: food consumption after single gavage dose (Experimental Example 6a); format: in vivo, rat; conditions: 0.5 mg/mL in 0.5% methylcellulose, 2 mL/kg by gavage; 24 hr after administration; obese F344 rats on high-fat diet
# Description: Experimental Example 6a The effect of the compound of the present invention for obesity was measured using the food consumption calculated as follows as an index. Male F344 rats (CLEA Japan, Inc.) were purchased at 5 weeks of age, and raised by groups on a solid high-fat diet with fat content 45 kcal % (D12451, Research Diets). When sufficient obesity was observed (40 to 60-week-old), they were raised singly, and given a powder high-fat diet with lipid content 45 kcal % […], Research Diets) in a feeder. The rats were grouped using body weight and food consumption (18:00-8:00) one day before administration as indices. […] A 0.5% methylcellulose solution was administered to the control group. After administration, a previously-weighed feeder was placed in the breeding cage. The feeder was weighed 24 hr after the administration and the food consumption was calculated.
# [4] = system: female spinal cord-transected rats with bilaterally transected hypogastric nerve and pudendal nerve; test: organ prolapse: urethral closure response induced by increased intravesical pressure (Experimental Example 7a); format: in vivo, rat; design: unit not given here; conditions: 1 mg/kg, i.v.; evaluated 10 min after administration
# Description: The effect of the compound of the present invention for organ prolapse was measured by examining the enhancement of urethral closure response by pelvic floor muscles (iliococcygeal muscle, pubococcygeal muscle etc.) induced by an increased intravesical pressure, by compound administration. The enhancing action of the compound on urethral closure response induced by an increased intravesical pressure was measured using female spinal cord-transected rats with bilaterally transected hypogastric nerve and pudendal nerve. SD female rats (body weight 246-298 g) were anesthetized with urethane, and the spinal cord was cut at T8-9 level to eliminate the micturition reflex. During the operation, isoflurane anesthesia was added as necessary. After abdominal section, bladder neck was ligated with a suture thread, and then the hypogastric nerve and pudendal nerve were bilaterally transected. […] The changes in the topical pressure within the urethra (hereinafter conveniently indicated as urethral pressure) as measured by the microtip transducer was transmitted to a computer via an amplifier and a data intake device, and recorded on a hard disc. […] The reaction of the urethra induced by an increased intravesical pressure was measured repeatedly until the value is stabilized, and the average of the last 2 measures was taken as the value before drug administration. […]
# [5] = system: male F344 rats (DIO-F344 rat); test: obesity: body weight and food consumption in high-fat diet-loaded rats, osmotic pump (Experimental Example 6b); format: in vivo; conditions: subcutaneous osmotic pump; for body weight loss (%): 14 days
# Description: The effect of the compound of the present invention for obesity was measured using high-fat diet-loaded rats based on the effects on body weight and food consumption. 38 to 60-week-old male F344 rats (DIO-F344 rat) raised on a […] fat high-fat diet (D12451, Research Diets) from 7 weeks of age were used. They were grouped based on the body weight one day before operation. The compound of Example 8 was dissolved in saline, filled in an osmotic pump (Alzet osmotic pump 2mL2 type), and subcutaneously implanted under isoflurane anesthesia. The body weight was measured on completion of the operation, and measured again at 14 days postoperation. In addition, the amount of remaining food was measured, and food consumption for 14 days was measured. For statistical calculation, Williams test was used.
# Sequence of serotonin 5-HT2C receptor (P28335 33-458 I156V/N158S/I160V limits assumed): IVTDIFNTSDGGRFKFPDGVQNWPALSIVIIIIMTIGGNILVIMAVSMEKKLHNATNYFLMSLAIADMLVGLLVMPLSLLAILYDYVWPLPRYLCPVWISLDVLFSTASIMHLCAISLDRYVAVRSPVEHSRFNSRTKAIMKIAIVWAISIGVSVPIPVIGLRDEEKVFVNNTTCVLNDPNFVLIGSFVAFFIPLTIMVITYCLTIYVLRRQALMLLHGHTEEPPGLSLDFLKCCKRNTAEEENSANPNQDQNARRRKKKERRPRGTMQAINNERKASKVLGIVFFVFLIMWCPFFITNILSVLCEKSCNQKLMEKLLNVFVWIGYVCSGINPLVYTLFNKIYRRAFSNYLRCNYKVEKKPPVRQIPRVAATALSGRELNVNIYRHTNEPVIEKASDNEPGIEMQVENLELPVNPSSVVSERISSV
smiles,measurement,setting,value
"CC(C)Oc1cnc2c(n1)OCCNC2.Cl [Example 2, 3-(1-methylethoxy)-6,7,8,9-tetrahydropyrazino[2,3-f][1,4]oxazepine hydrochloride]",ratio (%) relative to maximum response by 5-HT (1 μM),[1],93%
"C[C@@H]1COCCN1c1cnc2c(n1)OCCNC2.Cl [Example 5, 3-[(3R)-3-methylmorpholin-4-yl]-6,7,8,9-tetrahydropyrazino[2,3-f][1,4]oxazepine hydrochloride]",ratio (%) relative to maximum response by 5-HT (1 μM),[1],95%
same,Change in leak point pressure (cmH2O),[2]; 0.03 mg/kg,5.2 ± 1.7 cmH2O
same,Change in leak point pressure (cmH2O),[2]; 0.1 mg/kg,9.1 ± 1.3 cmH2O
same,Change in leak point pressure (cmH2O),[2]; 0.3 mg/kg,13.6 ± 2.4 cmH2O
same,Change in leak point pressure (cmH2O),[2]; 1 mg/kg,19.6 ± 1.9 cmH2O
same,suppression of food consumption as compared to the control group,[3],21.8%
same,urethral closure respons (ratio relative to value before administration),[4],227 ± 32
"C[C@H]1CNCc2ncc(N3CCOCC3)nc2O1 [Example 6, (6S)-6-methyl-3-(morpholin-4-yl)-6,7,8,9-tetrahydropyrazino[2,3-f][1,4]oxazepine]",ratio (%) relative to maximum response by 5-HT (1 μM),[1],102%
"C[C@@H]1COCCN1c1cnc2c(n1)O[C@@H](C)CNC2.Cl [Example 7, (6S)-6-methyl-3-[(3R)-3-methylmorpholin-4-yl]-6,7,8,9-tetrahydropyrazino[2,3-f][1,4]oxazepine hydrochloride]",ratio (%) relative to maximum response by 5-HT (1 μM),[1],108%
"CC(C)N(C)c1cnc2c(n1)OCCNC2.Cl [Example 8, N-methyl-N-(1-methylethyl)-6,7,8,9-tetrahydropyrazino[2,3-f][1,4]oxazepin-3-amine hydrochloride]",ratio (%) relative to maximum response by 5-HT (1 μM),[1],95%
same,Change in leak point pressure (cmH2O),[2]; 0.1 mg/kg,5.4 ± 1.6 cmH2O
same,Change in leak point pressure (cmH2O),[2]; 0.3 mg/kg,10.8 ± 3.3 cmH2O
same,Change in leak point pressure (cmH2O),[2]; 1 mg/kg,17.3 ± 3.4 cmH2O
same,Change in leak point pressure (cmH2O),[2]; 3 mg/kg,23.6 ± 3.3 cmH2O
same,food consumption/14 days,[5]; 3 mg/kg/day,150 ± 7 g
same,body weight loss (%),[5]; 3 mg/kg/day,4.8 ± 0.5%
same,food consumption/14 days,[5]; 10 mg/kg/day,140 ± 6 g
same,body weight loss (%),[5]; 10 mg/kg/day,4.9 ± 0.3%
same,food consumption/14 days,[5]; 30 mg/kg/day,110 ± 2 g
same,body weight loss (%),[5]; 30 mg/kg/day,7.5 ± 0.3 %
same,urethral closure respons (ratio relative to value before administration),[4],192 ± 13
"CC[C@@H]1COCCN1c1cnc2c(n1)OCCNC2.Cl [Example 9, 3-[(3R)-3-ethylmorpholin-4-yl]-6,7,8,9-tetrahydropyrazino[2,3-f][1,4]oxazepine hydrochloride]",ratio (%) relative to maximum response by 5-HT (1 μM),[1],103%
"Cl.c1nc2c(nc1C1CC1)OCCNC2 [Example 10, 3-cyclopropyl-6,7,8,9-tetrahydropyrazino[2,3-f][1,4]oxazepine hydrochloride]",ratio (%) relative to maximum response by 5-HT (1 μM),[1],89%

# Reference: patent publication US8314088B2, “Pyrazinooxazepine derivatives” (Takeda Pharmaceutical Company Limited, priority 2009, dated 2012)
